Laboratory results published in the supplement of paper PMC10307832.

Tests used:
Experiment in all cases: relative viability (nuclei count vs DMSO), 5 days (fraction); higher = more cells survive
[1] = compound: CC(C)C[C@H](NC(=O)[C@H](CCc1ccccc1)NC(=O)CN1CCOCC1)C(=O)N[C@@H](Cc1ccccc1)C(=O)N[C@@H](CC(C)C)C(=O)[C@@]1(C)CO1 [Carfilzomib] + CC(C)C[C@H](NC(=O)[C@H](Cc1ccccc1)NC(=O)c1cnccn1)B(O)O [Bortezomib] (partner 0.002 µM)
In short: (§1)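 Cells from lung cancer lines were seeded into 1536-well plates and, one day later, dosed by pin tool. Treatments were either a single drug or a fixed dose of an anchor drug with five library-drug doses (not always all listed) in √10 steps. After 5 days, nuclei were stained in a one-step fixation (final 0.05% Triton X-100, 1% formaldehyde, 1 ug/ml Hoechst) and counted on 4× images, and relative viability is the treated-to-vehicle nuclei ratio, as the median of duplicate plates.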

[2] = compound: C[C@@H](Oc1cc(-c2cnn(C3CCNCC3)c2)cnc1N)c1c(Cl)ccc(F)c1Cl [Crizotinib] + CS(=O)(=O)CCNCc1ccc(-c2ccc3ncnc(Nc4ccc(OCc5cccc(F)c5)c(Cl)c4)c3c2)o1 [Lapatinib] (partner 2 µM)
In short: as §1

[3] = compound: O=C(c1cc(Cc2n[nH]c(=O)c3ccccc23)ccc1F)N1CCN(C(=O)C2CC2)CC1 [Olaparib] + CS(=O)(=O)CCNCc1ccc(-c2ccc3ncnc(Nc4ccc(OCc5cccc(F)c5)c(Cl)c4)c3c2)o1 [Lapatinib] (partner 2 µM)
In short: as §1

[4] = compound: O=C(c1cc(Cc2n[nH]c(=O)c3ccccc23)ccc1F)N1CCN(C(=O)C2CC2)CC1 [Olaparib] + COc1cc2c(Oc3ccc(NC(=O)C4(C(=O)Nc5ccc(F)cc5)CC4)cc3F)ccnc2cc1OCCCN1CCOCC1 [Foretinib] (partner 0.25 µM)
In short: as §1

Cell Line | relative viability ([1]; first compound 0.001 µM) | relative viability ([1]; first compound 0.003162 µM) | relative viability ([1]; first compound 0.01 µM) | relative viability ([1]; first compound 0.03162 µM) | relative viability ([1]; first compound 0.1 µM) | relative viability ([2]; first compound 0.01 µM) | relative viability ([2]; first compound 0.03162 µM) | relative viability ([2]; first compound 0.1 µM) | relative viability ([2]; first compound 1 µM) | relative viability ([3]; first compound 0.08 µM) | relative viability ([3]; first compound 0.253 µM) | relative viability ([3]; first compound 2.53 µM) | relative viability ([3]; first compound 8 µM) | relative viability ([4]; first compound 0.08 µM) | relative viability ([4]; first compound 0.253 µM) | relative viability ([4]; first compound 2.53 µM) | relative viability ([4]; first compound 8 µM) | relative viability ([2]; first compound 0.3162 µM)
LCLC-97TM1 | 0.292 | 0.714 | 0.268 | 0.0483 | 0.0702 | 1.08 | 0.927 | 1.04 | 1.12 | 1.21 | 0.947 | 0.565 | 0.438 | 0.912 | 0.827 | 0.958 | 0.812 | 
LOU-NH91 | 0.438 | 0.49 | 0.362 | 0.26 | 0.263 | 0.738 | 0.731 | 0.677 | 0.712 | 0.83 | 0.77 | 0.733 | 0.735 | 0.943 | 0.957 | 0.998 | 0.939 | 0.57
LU99A | 1.09 | 1.31 | 1.05 | 0.459 | 0.216 | 0.824 | 1.02 | 0.976 | 0.928 | 1.01 | 0.839 | 0.643 | 0.49 | 0.826 | 0.646 | 0.608 | 0.537 | 1.03
LXF-289 | 1.03 | 0.957 | 0.653 | 0.0711 | 0.0774 | 0.902 | 0.886 | 0.925 | 0.872 | 0.929 | 0.871 | 0.97 | 0.973 | 1.06 | 0.91 | 1.07 | 0.983 | 0.779
NCI-H23 | 1.01 | 0.92 | 0.445 | 0.165 | 0.125 | 1.12 | 1.03 | 1.09 | 1.18 | 1.32 | 0.791 | 0.679 | 0.485 | 1.19 | 0.904 | 0.971 | 0.706 | 
NCI-H322M | 1.27 | 1.31 | 1.35 | 1.21 | 0.66 | 0.478 | 0.642 | 0.616 | 0.701 | 0.576 | 0.597 | 0.599 | 0.491 | 1.04 | 0.964 | 0.979 | 0.718 | 0.584
NCI-H460 | 1.06 | 1.12 | 1 | 0.0827 | 0.0107 | 0.977 | 1.24 | 0.983 | 0.982 | 1.28 | 0.874 | 0.679 | 0.172 | 0.925 | 0.889 | 0.914 | 0.437 | 0.94
NCI-H520 | 0.45 | 0.179 | 0.142 | 0.129 | 0.132 | 0.75 | 0.86 | 0.827 | 0.927 | 1.08 | 0.795 | 0.725 | 0.525 | 0.848 | 0.761 | 0.624 | 0.359 | 0.391
NCI-H596 | 0.885 | 0.987 | 0.839 | 0.483 | 0.2 | 1.02 | 1.12 | 1.02 | 1.24 | 1.09 | 0.988 | 1.06 | 0.73 | 0.927 | 0.82 | 0.828 | 0.534 | 1.02
NCI-H647 | 0.674 | 0.72 | 0.154 | 0.0243 | 0.0299 |  | 1.1 | 1.23 | 1.07 | 1.43 | 0.984 | 1.13 | 0.59 | 1.19 | 1.04 | 1.13 | 1.07 | 0.792
NCI-H650 | 0.587 | 0.701 | 0.619 | 0.145 | 0.157 | 0.833 | 0.788 | 0.909 | 0.891 | 1.05 | 0.834 | 0.903 | 0.742 | 1.11 | 1.02 | 0.909 | 0.794 | 0.803
NCI-H661 | 0.801 | 0.965 | 0.842 | 0.384 | 0.214 | 0.551 | 0.461 | 0.43 | 0.539 | 0.638 | 0.443 | 0.426 | 0.543 | 1.16 | 0.97 | 0.948 | 0.775 | 0.469
NCI-H727 | 0.72 | 0.77 | 0.795 | 0.3 | 0.147 | 0.837 | 0.749 | 1.15 | 0.888 | 0.945 | 0.778 | 0.651 | 0.465 | 0.843 | 1.06 | 0.911 | 0.703 | 0.729
NCI-H838 | 0.772 | 0.838 | 0.624 | 0.179 | 0.114 | 0.689 | 1.22 |  | 0.987 | 0.94 | 0.857 | 0.887 | 1.09 | 1.18 | 0.921 | 1.02 | 1.01 | 0.996
NCI-H1299 | 0.997 | 1.09 | 1.02 | 0.986 | 0.156 | 0.966 | 0.942 | 0.896 | 0.955 | 1.01 | 0.927 | 0.949 | 0.963 | 1.13 | 1.07 | 1.11 | 1.07 | 0.996
NCI-H1355 | 1.07 | 1.1 | 1.15 | 0.315 | 0.157 |  | 1.04 | 1.07 | 0.986 | 1.13 | 0.863 | 1 | 0.944 | 1.12 | 0.941 | 1 | 0.832 | 0.863
